Laboratory results taken from patent US20230183259A1, “Crystal Form Of Thiofuran Pyridazine Compound, Preparation Method Therefor And Application Thereof” (ZHEJIANG MEDICINE CO., LTD. XINCHANG PHARMACEUTICAL FACTORY, priority 2020, published 2023).

Assays:
[1] = acceleration test (stability); type: physicochemical; conditions: 40° C.±2° C., relative humidity 75%±5%
Procedure: (§1) Stability tests were performed on the samples of Examples 1, 2, 3, 4 and 5. […] Please refer to the results of the acceleration test (40° C.±2° C., relative humidity 75%±5%) of Table 1 and the results of the long-term stability test (25° C.±2° C., relative humidity 60%±10%) of Table 2.

[2] = long-term stability test; type: physicochemical; conditions: 25° C.±2° C., relative humidity 60%±10%
Procedure: as §1

## (S)-2-(4-fluorophenyl)-4-(piperidine-3-aminomethyl)thieno[2,3-d]pyridazine-7-carboxamide hydrochloride [Example 110601-1]
[1]; 0 month
  (%) Impurity B (%): 0.00%
  Crystal form: unchanged
  appearance: yellow crystalline powder
[1]; 0 month, hydrochloride
  Enantiomer (%): 0.11%
  Impurity A (%): 0.36%
  Impurity C (%): 0.03%
  Loss on drying (%): 7.1%
  Single largest impurity (%): 0.02%
  Total relevant substances (%): 0.47%
  content(%): 99.1%
[1]; 1 month
  Crystal form: unchanged
  Impurity C (%): 0.02%
  appearance: yellow crystalline powder
[1]; 1 month, hydrochloride
  (%) Impurity B (%): 0.00%
  Enantiomer (%): 0.13%
  Impurity A (%): 0.34%
  Loss on drying (%): 7.1%
  Single largest impurity (%): 0.02%
  Total relevant substances (%): 0.46%
  content(%): 100.5%
[1]; 2 months
  Crystal form: unchanged
  appearance: yellow crystalline powder
[1]; 2 months, hydrochloride
  (%) Impurity B (%): 0.00%
  Enantiomer (%): 0.11%
  Impurity A (%): 0.35%
  Impurity C (%): 0.02%
  Loss on drying (%): 7.1%
  Single largest impurity (%): 0.02%
  Total relevant substances (%): 0.44%
  content(%): 100.6%
[1]; 3 months
  (%) Impurity B (%): 0.00%
  Crystal form: unchanged
  Impurity C (%): 0.02%
  appearance: yellow crystalline powder
[1]; 3 months, hydrochloride
  Enantiomer (%): 0.1%
  Impurity A (%): 0.33%
  Loss on drying (%): 7.0%
  Single largest impurity (%): 0.03%
  Total relevant substances (%): 0.44%
  content(%): 99.6%
[1]; 6 months
  (%) Impurity B (%): 0.00%
  Crystal form: unchanged
  Impurity C (%): 0.02%
  appearance: yellow crystalline powder
[1]; 6 months, hydrochloride
  Enantiomer (%): 0.08%
  Impurity A (%): 0.30%
  Loss on drying (%): 7.0%
  Single largest impurity (%): 0.03%
  Total relevant substances (%): 0.41%
  content(%): 99.6%
[2]; 0 month
  Crystal form: unchanged
  ImpurityB(%): 0.00%
[2]; 0 month, hydrochloride
  Content (calculated by dried product )(%): 99.1%
  Enantiomers (%): 0.11%
  ImpurityA(%): 0.36%
  ImpurityC(%): 0.03%
  Loss on drying (%): 7.1%
  Single largest impurity (%): 0.02%
  Total relevant substances (%): 0.47%
  appearance: yellow crystalline powder
[2]; 3 months
  Crystal form: unchanged
  ImpurityB(%): 0.00%
  ImpurityC(%): 0.02%
[2]; 3 months, hydrochloride
  Content (calculated by dried product )(%): 99.9%
  Enantiomers (%): 0.11%
  ImpurityA(%): 0.35%
  Loss on drying (%): 7.0%
  Single largest impurity (%): 0.02%
  Total relevant substances (%): 0.45%
  appearance: yellow crystalline powder
[2]; 6 months
  Crystal form: unchanged
  ImpurityB(%): 0.00%
[2]; 6 months, hydrochloride
  Content (calculated by dried product )(%): 99.8%
  Enantiomers (%): 0.08%
  ImpurityA(%): 0.34%
  ImpurityC(%): 0.03%
  Loss on drying (%): 7.0%
  Single largest impurity (%): 0.02%
  Total relevant substances (%): 0.41%
  appearance: yellow crystalline powder
[2]; 9 months
  Crystal form: unchanged
  ImpurityC(%): 0.02%
[2]; 9 months, hydrochloride
  Content (calculated by dried product )(%): 99.8%
  Enantiomers (%): 0.08%
  ImpurityA(%): 0.34%
  ImpurityB(%): 0.02%
  Loss on drying (%): 7.0%
  Single largest impurity (%): 0.03%
  Total relevant substances (%): 0.47%
  appearance: yellow crystalline powder
[2]; 12 months
  Crystal form: unchanged
  ImpurityB(%): 0.01%
  Single largest impurity (%): 0.02%
[2]; 12 months, hydrochloride
  Content (calculated by dried product )(%): 99.4%
  Enantiomers (%): 0.1%
  ImpurityA(%): 0.34%
  ImpurityC(%): 0.02%
  Loss on drying (%): 7.1%
  Total relevant substances (%): 0.43%
  appearance: yellow crystalline powder
[2]; 18 months
  Crystal form: unchanged
  ImpurityB(%): 0.00%
  Single largest impurity (%): 0.02%
[2]; 18 months, hydrochloride
  Content (calculated by dried product )(%): 99.5%
  Enantiomers (%): 0.07%
  ImpurityA(%): 0.37%
  ImpurityC(%): 0.04%
  Loss on drying (%): 7.0%
  Total relevant substances (%): 0.45%
  appearance: yellow crystalline powder
[2]; 24 months
  Crystal form: unchanged
  Enantiomers (%): 0.08%
  ImpurityB(%): 0.00%
  ImpurityC(%): 0.02%
  Single largest impurity (%): 0.02%
[2]; 24 months, hydrochloride
  Content (calculated by dried product )(%): 98.3%
  ImpurityA(%): 0.37%
  Loss on drying (%): 7.4%
  Total relevant substances (%): 0.43%
  appearance: yellow crystalline powder
[2]; 36 months
  Crystal form: unchanged
  ImpurityC(%): 0.02%
  Single largest impurity (%): 0.02%
[2]; 36 months, hydrochloride
  Content (calculated by dried product )(%): 99.9%
  Enantiomers (%): 0.07%
  ImpurityA(%): 0.38%
  ImpurityB(%): 0.02%
  Loss on drying (%): 7.3%
  Total relevant substances (%): 0.50%
  appearance: yellow crystalline powder
